Assay: Pharmacokinetic test, single oral administration to beagle dogs
Type: in vivo
Settings: dog, blood, 20 mg/kg, once, 20 mpk, vehicle 0.5% CMC-Na
Experimental: The crystalline form I of compound A monohydrochloride monohydrate and compound A (vehicles for both samples were 0.5% CMC-Na) were respectively orally administered once to two groups of beagle dogs at a dose of 20 mpk, and blood samples were collected before the administration (0 h) and at 0.25, 0.5, 1, 2, 4, 6, 8 and 24 hours after the administration. The samples were processed and subjected to a chromatographic analysis.

Cmax: 147 ng/mL
AUC(0-t) (sampling to 24 hours): 522 ng·h/mL
SMILES: Cn1c(C(=O)N2CC(F)(F)C2)cc2ccc(-c3nccc(Nc4ccc(-c5cn[nH]c5)cc4)n3)cc21 [Compound A, (6-(4-((4-(1H-pyrazol-4-yl)phenyl)amino)pyrimidin-2-yl)-1-methyl-1H-indol-2-yl)(3,3-difluoroazetidin-1-yl)methanone]

From patent US20230312530A1, “SALT OF RHO-ASSOCIATED PROTEIN KINASE INHIBITOR, SOLID FORM OF THE SALT, PREPARATION METHOD FOR SAME, AND USES THEREOF” (BEIJING TIDE PHARMACEUTICAL CO., LTD., priority 2020, published 2023)
